Measured values taken from patent publication US11555036B2, “FGFR4 inhibitor, preparation method therefor and pharmaceutical use thereof” (Abbisko Therapeutics Co., Ltd., priority 2016, dated 2023).

Columns and labels:
[1] = system: Huh7 hepatocellular carcinoma cells; assay: FGFR4 cell proliferation experiment, Cell Titer Glo (CTG); assay type: cell-based; settings: Homo sapiens, Huh-7, 72 h, HuH-7 cells, 3 days; for IC50: concentration leading to absolute half growth inhibition; for EC50: concentration leading to half maximal growth inhibition
Procedure: II. FGFR4 Cell Proliferation Experiment
Cell Titer Glo (CTG) experiment was used in the present invention to evaluate the functional effects of the compounds on cell proliferation. […] Compound-mediated inhibition of cell proliferation/survival was assessed by quantification of cellular ATP levels using CTG reagent (Promega, #G7573). The specific experimental procedure was as follows:
2. 10 μL of medium containing a compound concentration of 10 fold of its final test concentration was added;
3. The dose effect was evaluated by a 5-fold serial dilution of the test compound, starting from 10 μM.
4. After cells incubation for 3 days at 37° C. under 5% CO2, the effect of the inhibitor on cell proliferation was quantified after adding 50 μL of CTG and testing with luminescence.

FGFR4 = FGFR4 (Homo sapiens, UniProt P22455); assay: FGFR4 Caliper Assay (in vitro biochemical kinase analysis of FGFR4); settings: read-out: Enzymatic activity FGFR4 IC50
Chain of FGFR4 (P22455 22-802): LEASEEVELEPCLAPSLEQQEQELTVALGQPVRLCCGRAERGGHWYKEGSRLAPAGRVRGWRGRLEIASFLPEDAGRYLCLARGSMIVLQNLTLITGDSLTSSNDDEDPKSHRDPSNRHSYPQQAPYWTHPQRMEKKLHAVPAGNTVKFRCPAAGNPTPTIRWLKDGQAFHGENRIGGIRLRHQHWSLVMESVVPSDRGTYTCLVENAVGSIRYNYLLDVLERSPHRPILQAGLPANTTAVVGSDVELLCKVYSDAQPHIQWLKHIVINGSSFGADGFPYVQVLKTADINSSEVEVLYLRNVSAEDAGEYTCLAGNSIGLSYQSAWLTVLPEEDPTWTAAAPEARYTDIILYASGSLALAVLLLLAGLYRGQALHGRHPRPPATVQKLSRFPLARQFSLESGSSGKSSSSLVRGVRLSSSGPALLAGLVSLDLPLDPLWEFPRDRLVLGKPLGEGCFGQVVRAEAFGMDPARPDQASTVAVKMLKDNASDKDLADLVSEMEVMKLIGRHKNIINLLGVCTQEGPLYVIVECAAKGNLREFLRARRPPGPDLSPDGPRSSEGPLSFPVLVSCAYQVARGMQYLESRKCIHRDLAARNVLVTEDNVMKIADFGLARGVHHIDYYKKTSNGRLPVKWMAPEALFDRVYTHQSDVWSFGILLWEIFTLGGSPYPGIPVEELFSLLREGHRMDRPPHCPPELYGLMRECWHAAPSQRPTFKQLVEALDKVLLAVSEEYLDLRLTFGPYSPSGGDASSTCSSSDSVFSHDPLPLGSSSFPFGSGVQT
Procedure: I. In Vitro Biochemical Kinase Analysis of FGFR4
FGFR4 Caliper Assay was used in the present invention to determine the inhibitory activities of the compounds against FGFR4. The detailed experimental procedure was as follows.
2. A reaction system is a mixture solution of 50 mM HEPES, pH 7.5, 1 mM DTT, 0.02% Tween 20, 0.02% BSA, 0.6% DMSO, 10 mM beta glycerol phosphate and 10 μM sodium orthovanadate and 16 mM MgCl2.
3. The reaction system was incubated at 30° C. for 40 minutes.
4. The reaction was terminated by adding a stop solution (100 mM HEPES, pH 7.5, 5% DMSO, 0.1% Caliper coating reagent, 10 mM EDTA and 0.015% Brij35).
5. The culture plate with the terminated kinase reaction was transferred to the Caliper LC 3000 workstation to read the data, the phosphorylated and unphosphorylated peptides were separated by using the Caliper microfluid migration shift technique, and the analyte was transferred by allowing a constant buffer flow through the chip, the migration of the substrate peptide was monitored by the labeled fluorescent signal, and the kinase activity was calculated by using the amount of the phosphate-based peptide formed.
6. Finally, IC50 values were determined by non-linear regression analysis of percent inhibition at different compound concentrations.

Compound | IC50 [1] [nM] | EC50 [1] [nM] | IC50 (FGFR4) [nM]
C=CC(=O)N[C@H]1COC[C@H]1Nc1ncc2cc(-c3c(Cl)c(OC)cc(OC)c3Cl)nc(NCc3cnn(C)c3)c2n1 [Example 459, N-((3R,4S)-4-((6-(2,6-dichloro-3,5-di-methoxyphenyl)-8-(((1-methyl-1H-pyrazol-4-yl)methyl)amino)pyrido[3,4-d]pyrimidin-2-yl)amino)tetrahydro-furan-3-yl)acrylamide] | 58 | 23.8 | 17.3
C=CC(=O)N[C@H]1COC[C@H]1Nc1cc2c(NC)nc(-c3c(Cl)c(OC)cc(OC)c3Cl)nc2cn1 [Example 752, N-((3R,4S)-4-((2-(2,6-dichloro-3,5-dimethoxyphenyl)-4-(methylamino)pyrido [3,4-d]pyrimidin-6-yl)amino)tetrahydro-furan-3-yl)acrylamide] | 2630 | 1710 | 991
C=CC(=O)N[C@H]1COC[C@H]1Nc1ncc2cc(-c3c(Cl)c(OC)cc(OC)c3Cl)nc(N3CC(C)(O)C3)c2n1 [Example 664, N-((3R,4S)-4-((6-(2,6-dichloro-3,5-dimethoxyphenyl)-8-(3-hydroxy-3-meth-ylazetidin-1-yl)pyrido[3,4-d]pyrimi-din-2-yl)amino)tetrahydrofuran-3-yl)acrylamide] | 4.9 | 3.7 | 4.9
C=CC(=O)N[C@H]1COC[C@H]1Nc1ncc2cc(-c3c(F)c(OC)cc(OC)c3F)nc(N3CCC3)c2n1 [Example 774, N-((3R,4S)-4-((8-(azetidin-1-yl)-6-(2,6-difluoro-3,5-dimethoxyphenyl)py-rido[3,4-d]pyrimidin-2-yl)amino)tetra-hydrofuran-3-yl)acrylamide] | 8.8 | 6.9 | 3.2
C=CC(=O)N[C@H]1CCOC[C@H]1Nc1ncc2cc(-c3c(Cl)c(OC)cc(OC)c3Cl)nc(N3CC(OC)C3)c2n1 [Example 704, N-((3S,4S)-3-((6-(2,6-dichloro-3,5-di-methoxyphenyl)-8-(3-methoxyazeti-din-1-yl)pyrido[3,4-d]pyrimidin-2-yl)amino)tetrahydro-2H-pyran-4-yl)acrylamide] | 20.2 | 17.2 | 8.5
C=CC(=O)N[C@H]1COC[C@H]1Nc1ncc2cc(-c3c(Cl)c(OC)cc(OC)c3Cl)nc(NCC3CCCC3)c2n1 [Example 454, N-((3R,4S)-4-((8-((cyclopentylmeth-yl)amino)-6-(2,6-dichloro-3,5-dimeth-oxyphenyl)pyrido[3,4-d]pyrimidin-2-yl)amino)tetrahydrofuran-3-yl)acryl-amide] | 89.2 | 40.8 | 66.9
C=CC(=O)N[C@H]1COC[C@H]1Nc1ncc2cc(-c3c(Cl)c(OC)cc(OC)c3Cl)nc(N3CC[C@@](C)(O)C3)c2n1 [Example 779, N-((3R,4S)-4-((6-(2,6-dichloro-3,5-dimethoxyphenyl)-8-((R)-3-hydroxy-3-methylpyrrolidin-1-yl)pyrido[3,4-d]pyrimidin-2-yl)amino)tetrahydro-furan-3-yl)acrylamide] | 8.6 | 7.5 | 
C=CC(=O)N[C@H]1COC[C@H]1Nc1ncc2cc(-c3c(Cl)c(OC)cc(OC)c3Cl)nc(NC3CCOCC3)c2n1 [Example 444, N-((3R,4S)-4-((6-(2,6-dichloro-3,5-di-methoxyphenyl)-8-((tetrahydro-2H-pyran-4-yl)amino)pyrido[3,4-d]py-rimidin-2-yl)amino)tetrahydrofuran-3-yl)acrylamide] |  |  | 7
[2H]C([2H])([2H])Oc1cc(OC([2H])([2H])[2H])c(Cl)c(-c2cc3cnc(N[C@@H]4COC[C@@H]4NC(=O)C=C)nc3c(NCC3CC3)n2)c1Cl [Example 425, N-((3R,4S)-4-((8-((cyclopropylmeth-yl)amino)-6-(2,6-dichloro-3,5-bis(meth-oxy-d3)phenyl)pyrido[3,4-d]pyrimi-din-2-yl)amino)tetrahydrofuran-3-yl)acrylamide] |  |  | 7.7
C=CC(=O)N[C@H]1COC[C@H]1Nc1ncc2cc(-c3c(Cl)c(OC)cc(OC)c3Cl)nc(N(C)C)c2n1 [Example 436, N-((3R,4S)-4-((6-(2,6-dichloro-3,5-di-methoxyphenyl)-8-(dimethylamino)pyrido[3,4-d]pyrimidin-2-yl)amino)tetrahydrofuran-3-yl)acrylamide] |  |  | > 10000
C=CC(=O)N[C@H]1COC[C@H]1Nc1ncc2cc(-c3c(Cl)c(OC)cc(OC)c3Cl)nc(NCCCCN(C)C)c2n1 [Example 465, N-((3R,4S)-4-((6-(2,6-dichloro-3,5-di-methoxyphenyl)-8-((4-(dimethylamino)butyl)amino)pyrido[3,4-d]pyrimi-din-2-yl)amino)tetrahydrofuran-3-yl) acrylamide] |  |  | 46.4
C=CC(=O)N[C@H]1COC[C@H]1Nc1ncc2cc(-c3c(Cl)c(OC)cc(OC)c3Cl)nc(OCc3cc(OC)cc(OC)c3)c2n1 [Example 755, N-((3R,4S)-4-((6-(2,6-dichloro-3,5-dimethoxyphenyl)-8-((3,5-dimethoxy-benzyl)oxy)pyrido[3,4-d]pyrimidin-2-yl)amino)tetrahydrofuran-3-yl) acrylamide] |  |  | 43
C=CC(=O)Nc1cccc(C)c1Nc1ncc2cc(-c3c(Cl)c(OC)cc(OC)c3Cl)ccc2n1 [BLU-9931] | 1360 | 549 | 
C=CC(=O)N[C@H]1COC[C@H]1Nc1ncc2cc(-c3c(Cl)c(OC)cc(OC)c3Cl)nc(N3CC[C@](C)(O)C3)c2n1 [Example 778, N-((3R,4S)-4-((6-(2,6-dichloro-3,5-dimethoxyphenyl)-8-((S)-3-hydroxy-3-methylpyrrolidin-1-yl)pyrido[3,4-d]py-rimidin-2-yl)amino)tetrahydrofuran-3-yl)acrylamide] | 11.2 | 9.5 | 
C=CC(=O)N[C@H]1COC[C@H]1Nc1ncc2cc(-c3c(F)ccc(OC)c3F)nc(NC)c2n1 [Example 777, N-((3R,4S)-4-((6-(2,6-difluoro-3-meth-oxyphenyl)-8-(methylamino)pyri-do[3,4-d]pyrimidin-2-yl)amino)tetra-hydrofuran-3-yl)acrylamide] | 660 | 651 | 
C=CC(=O)N[C@H]1COC[C@H]1Nc1ncc2cc(-c3c(Cl)c(OC)cc(OC)c3Cl)nc(C3CC3)c2n1 [Example 609, N-((3R,4S)-4-((8-cyclopropyl-6-(2,6-dichloro-3,5-dimethoxyphenyl)pyri-do[3,4-d]pyrimidin-2-yl)amino)tetra-hydrofuran-3-yl)acrylamide] | 56.1 | 36.6 | 
C=CC(=O)N[C@H]1COC[C@H]1Nc1ncc2cc(-c3c(Cl)c(OC)cc(OC)c3Cl)nc(NCCN(C)C)c2n1 [Example 431, N-((3R,4S)-4-((6-(2,6-dichloro-3,5-di-methoxyphenyl)-8-((2-(dimethylami-no)ethyl)amino)pyrido[3,4-d]pyrimi-din-2-yl)amino)tetrahydrofuran-3-yl) acrylamide] |  |  | 519
C=CC(=O)N[C@H]1COC[C@H]1Nc1ncc2cc(-c3c(Cl)c(OC)cc(OC)c3Cl)nc(NCC3CCOC3)c2n1 (stereo partly drawn) [Example 439, N-((3R,4S)-4-((6-(2,6-dichloro-3,5-di-methoxyphenyl)-8-(((tetrahydrofuran-3-yl)methyl)amino)pyrido[3,4-d]py-rimidin-2-yl)amino)tetrahydrofuran-3-yl)acrylamide] |  |  | 4.6
